Values quoted from earlier work, collected in PMC6882435, “Preparation and study of two kinds of ophthalmic nano-preparations of everolimus” (Drug Delivery, 2019).

Experiments:
[1] = design: method as in Baspinar et al., 2008; Tedesco-Silva et al., 2019; conditions: patients that take the drug (systemic, oral); ref Baspinar et al., 2008; Tedesco-Silva et al., 2019
[2] = design: method as in Iwase & Maitani, 2012; conditions: raw material at room temperature; ref Iwase & Maitani, 2012

In the case of CO[C@H]1C[C@@H]2CC[C@@H](C)[C@@](O)(O2)C(=O)C(=O)N2CCCC[C@H]2C(=O)O[C@H]([C@H](C)C[C@@H]2CC[C@@H](OCCO)[C@H](OC)C2)CC(=O)[C@H](C)/C=C(\C)[C@@H](O)[C@@H](OC)C(=O)[C@H](C)C[C@H](C)/C=C/C=C/C=C/1C [Everolimus, 4 O-O-(2-hydroxyethyl)-rapamycin], the “patients with side effects such as thrombocytopenia and dyslipidemia” value [1] is given as “about 30%” and the solubility [2] is given as “about 9.6 μg·mL^−1”.
